Source: PubChem BioAssay AID248 (DTP/NCI, 2004)
“And” between values parts separate entries of the source, which are not always exact repeats. Equal entries are not always repeated. Inconclusive results and toxic doses are left out. Rule as the data show it: active = T/C of 150% or more; inactive = T/C below 125%.

Test system: L1210 leukemia ip in BDF1 mice, survival T/C
Assay: NCI In Vivo Anticancer Drug Screen. Data for tumor model L1210 Leukemia (intraperitoneal) in B6D2F1 (BDF1) mice
Conditions: endpoint: mean survival time, higher = longer survival
Summary of the method: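 Antitumor effect is assessed in tumor-bearing animals. Survival in the compound arm is compared with a vehicle-dosed control arm and expressed as their quotient.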

[1] = dose: 50.0 mg/kg/injection, schedule: Q01DX001 (ip), vehicle: saline
[2] = dose: 100.0 mg/kg/injection, schedule: Q01DX001 (ip), vehicle: saline
[3] = dose: 200.0 mg/kg/injection, schedule: Q01DX001 (ip), vehicle: saline
[4] = dose: 100.0 mg/kg/injection, schedule: Q01DX009 (ip), vehicle: Klucel (hydroxypropylcellulose) (HPC)
[5] = dose: 100.0 mg/kg/injection, schedule: Q04DX003 (ip), vehicle: Klucel (hydroxypropylcellulose) (HPC)
[6] = dose: 200.0 mg/kg/injection, schedule: Q01DX009 (ip), vehicle: Klucel (hydroxypropylcellulose) (HPC)
[7] = dose: 400.0 mg/kg/injection, schedule: Q01DX009 (ip), vehicle: Klucel (hydroxypropylcellulose) (HPC)
[8] = dose: 25.0 mg/kg/injection, schedule: Q04DX003 (ip), vehicle: saline
[9] = dose: 100.0 mg/kg/injection, schedule: Q01DX001 (ip), vehicle: carboxymethylcellulose (CMC)
[10] = dose: 200.0 mg/kg/injection, schedule: Q01DX001 (ip), vehicle: carboxymethylcellulose (CMC)
[11] = dose: 400.0 mg/kg/injection, schedule: Q01DX001 (ip), vehicle: carboxymethylcellulose (CMC)
[12] = dose: 100.0 mg/kg/injection, schedule: Q01DX009 (ip), vehicle: saline with Tween-80
[13] = dose: 200.0 mg/kg/injection, schedule: Q01DX009 (ip), vehicle: saline with Tween-80
[14] = dose: 400.0 mg/kg/injection, schedule: Q01DX009 (ip), vehicle: saline with Tween-80
[15] = dose: 100.0 mg/kg/injection, schedule: Q04DX003 (ip), vehicle: saline with Tween-80
[16] = dose: 200.0 mg/kg/injection, schedule: Q04DX003 (ip), vehicle: saline with Tween-80
[17] = dose: 400.0 mg/kg/injection, schedule: Q04DX003 (ip), vehicle: saline with Tween-80

Measured: T/C

Nc1ccccc1S.[Ag]
inactive: [1] 95 % of control | [2] 86 % of control | [3] 91 % of control | dose: 400.0 mg/kg/injection, schedule: Q01DX001 (ip), vehicle: saline 91 % of control

O=C(c1ccccc1)C(Br)c1ccc([N+](=O)[O-])cc1 (stereo not drawn)
inactive: [4] 99 % of control | [5] 105 % of control | [6] 105 % of control | dose: 200.0 mg/kg/injection, schedule: Q04DX003 (ip), vehicle: Klucel (hydroxypropylcellulose) (HPC) 108 % of control | [7] 95 % of control | dose: 400.0 mg/kg/injection, schedule: Q04DX003 (ip), vehicle: Klucel (hydroxypropylcellulose) (HPC) 103 % of control

CC(C)(C)C(=O)C#Cc1ccccc1
inactive: [8] 102 % of control | dose: 50.0 mg/kg/injection, schedule: Q04DX003 (ip), vehicle: saline 96 % of control | dose: 100.0 mg/kg/injection, schedule: Q04DX003 (ip), vehicle: saline 89 % of control

O=[N+]([O-])/C=C\c1cc2ccccc2c2ccccc12
inactive: [9] 94 % of control | [10] 94 % of control | [11] 94 % of control

N=C(N)c1ncn(C2CC(O)C(CO)O2)c1N (stereo not drawn)
inactive: [2] 106 % of control | [3] 103 % of control

O=C1NC2C3CCC(C3)C12 (stereo not drawn)
inactive: dose: 10.0 mg/kg/injection, schedule: Q04DX002 (ip), vehicle: saline 90 % of control | dose: 20.0 mg/kg/injection, schedule: Q04DX002 (ip), vehicle: saline 107 % of control | dose: 40.0 mg/kg/injection, schedule: Q04DX002 (ip), vehicle: saline 93 % of control

O=[N+]([O-])c1ccc(O)c(C=Nc2cnc3ccccc3c2)c1
inactive: [9] 88 % of control | [10] 93 % of control | [11] 90 % of control

OCC1OC(n2ccc3c(Cl)ncnc32)C(O)C1O (stereo not drawn)
inactive: dose: 25.0 mg/kg/injection, schedule: Q01DX001 (ip), vehicle: saline 110 % of control | [1] 104 % of control | [2] 110 % of control | [3] 110 % of control

COC(=O)C1CC2C(CCC3C(C)(C(=O)OC)CCCC23C)C(=O)C1(O)C(C)C (stereo not drawn)
inactive: [12] 95 % of control | [13] 90 % of control | [14] 91 % of control

CCCCOCCOP(OCCOCCCC)OCCOCCCC
inactive: [4] 101 % of control | [6] 102 % of control | [7] 90 % of control

CCCCCCCCCC(=O)N1CCCC(C)C1 (stereo not drawn)
inactive: dose: 50.0 mg/kg/injection, schedule: Q01DX001 (ip), vehicle: carboxymethylcellulose (CMC) 100 % of control | dose: 50.0 mg/kg/injection, schedule: Q01DX009 (ip), vehicle: carboxymethylcellulose (CMC) 94 % of control | dose: 50.0 mg/kg/injection, schedule: Q04DX003 (ip), vehicle: carboxymethylcellulose (CMC) 101 % of control | [9] 98 % of control | dose: 100.0 mg/kg/injection, schedule: Q01DX009 (ip), vehicle: carboxymethylcellulose (CMC) 90 % of control and 91 % of control | dose: 100.0 mg/kg/injection, schedule: Q04DX002 (ip), vehicle: carboxymethylcellulose (CMC) 93 % of control and 95 % of control | dose: 100.0 mg/kg/injection, schedule: Q04DX003 (ip), vehicle: carboxymethylcellulose (CMC) 95 % of control | [10] 94 % of control | dose: 200.0 mg/kg/injection, schedule: Q01DX009 (ip), vehicle: carboxymethylcellulose (CMC) 89 % of control | dose: 200.0 mg/kg/injection, schedule: Q04DX002 (ip), vehicle: carboxymethylcellulose (CMC) 101 % of control and 103 % of control | dose: 200.0 mg/kg/injection, schedule: Q04DX003 (ip), vehicle: carboxymethylcellulose (CMC) 97 % of control | dose: 400.0 mg/kg/injection, schedule: Q04DX002 (ip), vehicle: carboxymethylcellulose (CMC) 92 % of control

NC1C2CC3CC(C2)CC1C3 (stereo not drawn)
inactive: dose: 5.0 mg/kg/injection, schedule: Q01DX001 (ip), vehicle: saline 102 % of control | dose: 10.0 mg/kg/injection, schedule: Q01DX001 (ip), vehicle: saline 98 % of control | dose: 20.0 mg/kg/injection, schedule: Q01DX001 (ip), vehicle: saline 107 % of control | dose: 40.0 mg/kg/injection, schedule: Q01DX001 (ip), vehicle: saline 96 % of control | dose: 75.0 mg/kg/injection, schedule: Q01DX001 (ip), vehicle: other 93 % of control | dose: 80.0 mg/kg/injection, schedule: Q01DX001 (ip), vehicle: saline 96 % of control

CN(N)C(=O)Nc1ccccc1Cl
inactive: dose: 75.0 mg/kg/injection, schedule: Q01DX001 (ip), vehicle: carboxymethylcellulose (CMC) 100 % of control | dose: 150.0 mg/kg/injection, schedule: Q01DX001 (ip), vehicle: carboxymethylcellulose (CMC) 107 % of control

O/N=C/CCCC/C=N/O
inactive: dose: 50.0 mg/kg/injection, schedule: Q01DX009 (ip), vehicle: saline with Tween-80 91 % of control | [12] 91 % of control | [13] 91 % of control

OCC1OC(CO)(OC2CC3C(O)CC(O)CC3OC2c2cc(O)c(O)c(O)c2)C(O)C1O (stereo not drawn)
inactive: [9] 103 % of control | [10] 93 % of control | [11] 92 % of control

NC(=O)NC(=O)CCl
inactive: dose: 50.0 mg/kg/injection, schedule: Q04DX002 (ip), vehicle: Klucel (hydroxypropylcellulose) (HPC) 103 % of control | dose: 100.0 mg/kg/injection, schedule: Q04DX002 (ip), vehicle: Klucel (hydroxypropylcellulose) (HPC) 109 % of control | dose: 200.0 mg/kg/injection, schedule: Q04DX002 (ip), vehicle: Klucel (hydroxypropylcellulose) (HPC) 95 % of control

CCOC(=O)C1(C(=O)OCC)C(C)CC(OCC)N1C(=O)c1cc2c(cc1[N+](=O)[O-])OCO2 (stereo not drawn)
inactive: dose: 25.0 mg/kg/injection, schedule: Q04DX003 (ip), vehicle: Klucel (hydroxypropylcellulose) (HPC) 92 % of control | dose: 50.0 mg/kg/injection, schedule: Q04DX003 (ip), vehicle: Klucel (hydroxypropylcellulose) (HPC) 89 % of control | [5] 94 % of control

O=C1C(Cl)=C(Cl)C(=O)N1c1ccc(Cl)c(Cl)c1
inactive: [12] 98 % of control | [15] 91 % of control | [13] 101 % of control | [16] 87 % of control | [17] 94 % of control

COc1ccc(C=Nc2ccccc2C(=O)O)cc1
inactive: dose: 100.0 mg/kg/injection, schedule: Q01DX001 (ip), vehicle: saline with Tween-80 108 % of control | dose: 200.0 mg/kg/injection, schedule: Q01DX001 (ip), vehicle: saline with Tween-80 105 % of control | dose: 400.0 mg/kg/injection, schedule: Q01DX001 (ip), vehicle: saline with Tween-80 93 % of control

O=c1c2ccccc2[nH]c2ccc(-n3nnc4ccccc4c3=O)cc12
inactive: dose: 6.0 mg/kg/injection, schedule: Q04DX003 (ip), vehicle: saline 103 % of control | dose: 12.0 mg/kg/injection, schedule: Q04DX003 (ip), vehicle: saline 89 % of control | [8] 94 % of control

CC(=O)OCc1cc2ccccc2nc1C
inactive: [12] 110 % of control | [15] 102 % of control | [13] 104 % of control | [16] 96 % of control | [14] 98 % of control | [17] 96 % of control
